Test system: MV-4-11 xenografts
Experiment: MV-4-11 xenograft model of human AML in CD-1 Nude mice
Format: in vivo
Settings: 0.5 mg/kg IP, QW×4 vs vehicle; p=0.137
Protocol: Female 8- to 10-week-old CD-1 Nude mice (Charles River Laboratories) with established MV-4-11 xenografts were treated for 21 days (n=8). MV-4-11 cells is a human AML cell line which endogenously expresses a Fms Related Receptor Tyrosine Kinase 3 (FLT3) internal tandem duplication (ITD) mutation. Animal weights were monitored daily, and tumor volume was measured three times per week. Tumor volume (mm^3) was defined as follows, length×width^2/2. Percentage tumor growth inhibition (% TGI) was defined as follows, 100×[1−(TVf,treated−TVi,treated)/(TVf,control−TVi,control)], where TVf is the average tumor volume at the end of study, and TVi is the average tumor volume at the initiation of treatment. In cases where tumor regression occurred, percentage tumor regression was defined as follows, 100×[1−(TVf,treated/TVi,treated)]. At the completion of the study, the mice were sacrificed by an anesthetic overdose. The Institutional Animal Care and Use Committee of the University Health Network approved all animal procedures. […] Data are represented as mean±SEM. p values were calculated using Student's/test.

In the case of `CC[C@]1(O)C[C@H]2CN(CCc3c([nH]c4ccccc34)[C@@](C(=O)OC)(c3cc4c(cc3OC)N(C=O)[C@H]3[C@@](O)(C(=O)OC)[C@H](OC(C)=O)[C@]5(CC)C=CCN6CC[C@]43[C@@H]65)C2)C1` [Vincristine, reference compound], the “Day 10 TGI (tumor growth inhibition)” value is reported as 62%.
